Measured values as given in patent US11952356B2, “Crystalline form of 1,4-bis[1,2-benzisoselenazol-3(2H)-one]-butane, method for preparing same and use thereof” (SHANGHAI YUANXI MEDICINE CORP., priority 2019, dated 2024).
Like-named read-outs stand apart in the source and are kept apart here.

Key:
[1] = Grinding test, crystalline form by XRD; format: physicochemical
HBV [2] = test: HBeAg assay in culture supernatant; format: cell-based
Method: (§1) Cell plating: HepAD38 cells were seeded in 24-well plates at a density of 8×10^4 cells/well, each well containing 500 μL of culture medium. Treatment: 9 h after plating, the cells were observed. […] The cells were cultured for 48 h, washed with PBS twice, added with the above drugs, and cultured for another 48 h. After the 48 h, the supernatant was collected, and HBV DNA, HBsAg, and HBeAg in the supernatant were detected. HBV DNA was preferentially determined.
HBsAg and HBeAg assays in culture supernatant: The assay was time-resolved immunofluorescence (ELISA) according to HBsAg and HBeAg assay kits of PE Corporation.
After 48 h, 1 mL of cell culture supernatant was collected for detecting HBsAg and HBeAg. The cells were washed at least 5 times with PBS. 1 mL of the last PBS washings was collected and used as the baseline for determining whether the plasmids were washed away. Note: when washing the cells, PBS was slowly added into the dish along the wall of the dish without resuspending the cells. The dish was then gently shaken to wash the cells, and the residual PBS was discarded after each washing to minimize the plasmid residues.

HBV [3] = test: HBV DNA assay in HepAD38 culture supernatant; format: cell-based; conditions: for Supernatant HBV DVA level: HepAD38 cells
Method: as §1
HBV DNA assay in culture supernatant: According to TransGen's Viral Nucleic Acid Extraction kit, the nucleic acid was extracted and by SYBR green qPCR, the viral DNA load was determined.
(§2) Procedures for determining HBV DNA, HBV RNA, HBsAg and HBeAg in cell culture supernatant are as follows:
(§3) The cells were transferred to a larger culture dish, and cultured in a culture medium for 3 days. 1 mL of cell supernatant was collected for detecting HBV DNA and HBV RNA. If the detection was not timely performed, the samples were stored at −20° C.
(§4) 1 mL of collected cell culture supernatant and the last PBS washings collected at 48 h were centrifuged at 5000 rpm for 5 min. 200 μL of the supernatant after centrifugation was added to 5 μL of DNaseI+5 μL of DNasel buffer, well mixed and subjected to instantaneous centrifugation. The supernatant was incubated for 1 h at 37° C., mixed once every 30 min, and subjected to instantaneous centrifugation. After 1 h, 5 μL of EDTA was added and the system was incubated at 65° C. for 10 min before the DNaseI reaction was terminated.
(§5) 200 μL of HBV nucleic acid in cell supernatant was concentrated into a system of 20 μL by using a TransGene's HBV nucleic acid extraction kit.
(§6) The supernatant HBV DNA level and the baseline level of plasmid in PBS after DNase treatment were measured by real-time PCR. After reverse transcription of HBV RNA into cDNA, real time PCR was performed to detect the level.

[4] = Stability test of crystalline form I (XRD after storage); format: physicochemical; conditions: 40° C./75% relative humidity and 60° C., 3 to 7 days
HBV [5] = test: HBV RNA assay in cell culture supernatant; format: cell-based
Method: as §1, §2, §3, §4, §5, §6
(2) cDNA quantitative system after reverse transcription of HBV RNA: […]

[6] = system: hepatic fibrosis animal model; test: CCl4-induced hepatic fibrosis animal model; format: in vivo, Balb/c mice; conditions: for average body weight / ALB (serum) / ALP (serum) / ALT (serum) / AST (serum) / TGF (serum) / TP (serum) / TrxR1 (serum): end of study; for ALB (serum) / ALP (serum) / ALT (serum) / AST (serum) / TGF (serum) / TP (serum) / TrxR1 (serum): model group = 1.00
Method: Animals: Balb/c inbred mice, male, six weeks old, purchased from Peking University, Health Science Center, Department of Laboratory Animal Science, with license number SCXK(Jing)2016-0010. The breeding environment was clean. The accommodation temperature was 25±2° C. The mice were bred in 12-hour light/darkness cycle, and had sufficient food and water supply.
After being prepared into a solution or suspension, the compound was administered to the mice at a dose of 5 mL/Kg.
20 male Balb/c mice aged 6 weeks were randomized into 4 groups. After a staged gradient induction using 25% CCl4 for 4 weeks (three times a week), the treatment started in the BSL (90 mg/kg) group and the BSM (180 mg/kg) group once a day, and the control group and model group were administered with 5‰ CMC-Na solution. After 8 weeks of induction, the mice were sacrificed and the blood was collected and centrifuged at 3000 rpm for 15 min to give the serum for detecting TGF-β1, TrxR1, AST, ALT, ALP, TP and the expression (hepatic fibrosis animal model is shown in FIG. 6). Part of liver was fixed with 4% paraformaldehyde, and subjected to immunohistochemical HE staining and Masson staining. Expressions of α-SMA and Collagen I in liver tissue were detected immunohistochemically. Part of liver was preserved in liquid nitrogen.

H22 cells = test: Tumor inhibitory activity assay in H22 mice; format: in vivo, mouse; conditions: 180 mg/kg once daily oral gavage; for Tumor growth inhibition: n=10
Method: After 2 days of acclimation, qualified animals were randomized into 4 groups with 10 animals each. On day 0, H22 cells were grafted at 1×10^4/mouse subcutaneously at the right axilla. The treatment started at 24 h after grafting. Long and short diameters of tumor were recorded daily and the tumor size was calculated according to the formula: long diameter×short diameter^2×0.5236. The body weight was measured every 2 days. After 21 days of treatment, blood was collected from eyeballs after chloral hydrate anesthesia. The mice were sacrificed and tumors were collected quickly.

[7] = BSL and BSM groups vs model group

Structure (SMILES): O=c1c2ccccc2[se]n1CCCCn1[se]c2ccccc2c1=O [Crystalline form I-a, 1,4-BIS[1,2-BENZISOSELENAZOL-3(2H)-one]-butane]
- Crystalline form after grinding (XRD) [1]: crystalline form I
- Crystalline form after grinding (XRD) ([1]; listed as Comparative Example 1): Crystalline form I
- Crystalline form after grinding (XRD) ([1]; listed as Comparative Example 2): Crystalline form I
- Crystalline form after grinding (XRD) ([1]; listed as Comparative Example 3): Crystalline form I

Structure (SMILES): C=C1[C@H](CO)[C@@H](O)C[C@@H]1n1cnc2c(=O)[nH]c(N)nc21 [ETV, entecavir, reference compound]
- Supernatant HBeAg level (HBV [2]; ETV concentration not given): 36.8%
- Supernatant HBV DVA level (HBV [3]; ETV concentration not given): 80%

Structure (SMILES): O=c1c2ccccc2[se]n1CCCCn1[se]c2ccccc2c1=O [Crystalline form I, 1,4-BIS[1,2-BENZISOSELENAZOL-3(2H)-one]-butane]
- Crystalline form after grinding (XRD) ([1]; listed as Example 1): Crystalline form I
- XRD pattern after storage [4]: unchanged
- Supernatant HBV RNA level (HBV [5]; 0.5 μM): 48%
- Supernatant HBV RNA level (HBV [5]; 1.0 μM): 42%
- Supernatant HBV RNA level (HBV [5]; 5.0 μM): 43%
- Supernatant HBeAg level (HBV [2]; 0.5 μM): 22%
- Supernatant HBeAg level (HBV [2]; 1.0 μM): 17%
- Supernatant HBeAg level (HBV [2]; 5.0 μM): 43.1%^
- Inhibition effect on supernatant HBeAg (HBV [2]; summary in words): good inhibition effect
- Supernatant HBV DVA level (HBV [3]; 0.5 μM): 62%
- Supernatant HBV DVA level (HBV [3]; 1.0 μM): 63%
- Supernatant HBV DVA level (HBV [3]; 5.0 μM): 70%
- Inhibition effect on HBV DNA (HBV [3]; summary in words): good inhibition effect
- average body weight ([6]; BSL 90 mg/kg once a day, n ≥ 4): 17 g
- average body weight ([6]; BSL 90 mg/kg): 17.00 ± 0.68 g
- ALB (serum) ([6]; BSL 90 mg/kg): 1.83
- ALP (serum) ([6]; BSL 90 mg/kg): 0.82
- ALT (serum) ([6]; BSL 90 mg/kg): 0.48
- AST (serum) ([6]; BSL 90 mg/kg): 0.29
- TGF (serum) ([6]; BSL 90 mg/kg): 0.76
- TP (serum) ([6]; BSL 90 mg/kg): 1.35
- TrxR1 (serum) ([6]; BSL 90 mg/kg): 0.82
- Collagen1 expression in liver (staining) [6, 7]: significantly reduced
- HE staining: symptoms of hepatocyte necrosis and inflammation [6, 7]: significantly reduced
- Masson staining: fibrosis symptoms [6, 7]: gradually relieved
- α-SMA expression in liver (staining) [6, 7]: significantly reduced
- average body weight ([6]; BSM 180 mg/kg once a day, n ≥ 4): 18 g
- average body weight ([6]; BSM 180 mg/kg): 18.04 ± 2.23 g
- ALB (serum) ([6]; BSM 180 mg/kg): 1.47
- ALP (serum) ([6]; BSM 180 mg/kg): 0.73
- ALT (serum) ([6]; BSM 180 mg/kg): 0.39
- AST (serum) ([6]; BSM 180 mg/kg): 0.27
- TGF (serum) ([6]; BSM 180 mg/kg): 0.85
- TP (serum) ([6]; BSM 180 mg/kg): 1.36
- TrxR1 (serum) ([6]; BSM 180 mg/kg): 0.89
- Liver surface symptoms (roughness, granular sensation) ([6]; treatment groups (BSL 90 mg/kg, BSM 180 mg/kg) vs model group): improved
- Mean tumor weight (H22 cells; after 21 days of treatment): 138.33 mg
- Tumor growth inhibition (tumor weight) (H22 cells; after 21 days of treatment): 88.70%
- Tumor growth inhibition (tumor weight) (H22 cells; after 21 days of treatment, listed as crystalline form I): up to 88.7%
- Tumor growth inhibition (H22 cells; day 9, tumor size): 70.42%
- Tumor growth inhibition (H22 cells; day 10, tumor size): 78.32%
- Tumor growth inhibition (H22 cells; day 11, tumor size): 76.31%
- Tumor growth inhibition (H22 cells; day 12, tumor size): 78.27%
- Tumor growth inhibition (H22 cells; day 13, tumor size): 76.03%
- Tumor growth inhibition (H22 cells; day 14, tumor size): 72.24%
- Tumor growth inhibition (H22 cells; day 15, tumor size): 65.74%
- Tumor growth inhibition (H22 cells; day 16, tumor size): 76.97%
- Tumor growth inhibition (H22 cells; day 17, tumor size): 78.21%
- Tumor growth inhibition (H22 cells; day 18, tumor size): 82.33%
- Tumor growth inhibition (H22 cells; day 19, tumor size): 87.15%
- Tumor growth inhibition (H22 cells; day 20, tumor size): 88.49%
- Tumor growth inhibition (H22 cells; day 21, tumor size): 86.67%
